± gives the standard deviation of the averaged measurements.
Assays:
[1] = compound: Cc1nc(Nc2n[nH]c3c2CN(C(=O)N[C@H](CN(C)C)c2ccccc2)C3(C)C)c2sccc2n1; assay: surviving fraction relative to DMSO-only wells; higher = less growth inhibition; details: exposure time: 5 days
Summary of the method: (§1)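 Log-phase tumour cell lines, 250–500 cells per well in 384-well plates, received inhibitors at 0.5, 1, 5, 10, 50, 100, 500 and 1000 nM continuously for five days, starting 24 hours after seeding. Viability was quantified with CellTiter-Glo luminescence and normalised to the median of DMSO-only wells to give surviving fraction. Three screens were run per line, and a line stayed in only with replicate Pearson r >0.7 and median Z' >0.3.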

[2] = compound: CCCS(=O)(=O)Nc1ccc(F)c(C(=O)c2c[nH]c3ncc(Cl)cc23)c1F [PLX-4720]; assay: as above; details: exposure time: 5 days
Summary of the method: as §1

Test System: CAL51 BREAST
- surviving fraction ([1]; 0.5 nM): 0.898 ± 0.011
- surviving fraction ([1]; 1 nM): 0.765 ± 0.047
- surviving fraction ([1]; 5 nM): 0.281 ± 0.017
- surviving fraction ([1]; 10 nM): 0.181 ± 0.0083
- surviving fraction ([1]; 50 nM): 0.0752 ± 0.002
- surviving fraction ([1]; 100 nM): 0.0562 ± 0.0013
- surviving fraction ([1]; 500 nM): 0.0417 ± 0.0018
- surviving fraction ([1]; 1000 nM): 0.0317 ± 0.0014
- surviving fraction ([2]; 0.5 nM): 0.926 ± 0.04
- surviving fraction ([2]; 1 nM): 0.897 ± 0.026
- surviving fraction ([2]; 5 nM): 0.985 ± 0.045
- surviving fraction ([2]; 10 nM): 0.939 ± 0.038
- surviving fraction ([2]; 50 nM): 0.992 ± 0.027
- surviving fraction ([2]; 100 nM): 1.02 ± 0.029
- surviving fraction ([2]; 500 nM): 1.04 ± 0.052
- surviving fraction ([2]; 1000 nM): 1.05 ± 0.04

Test System: CAL120 BREAST
- surviving fraction ([1]; 0.5 nM): 0.904 ± 0.0095
- surviving fraction ([1]; 1 nM): 0.599 ± 0.021
- surviving fraction ([1]; 5 nM): 0.364 ± 0.019
- surviving fraction ([1]; 10 nM): 0.287 ± 0.0047
- surviving fraction ([1]; 50 nM): 0.242 ± 0.03
- surviving fraction ([1]; 100 nM): 0.223 ± 0.0029
- surviving fraction ([1]; 500 nM): 0.24 ± 0.028
- surviving fraction ([1]; 1000 nM): 0.151 ± 0.018
- surviving fraction ([2]; 0.5 nM): 0.852 ± 0.027
- surviving fraction ([2]; 1 nM): 0.899 ± 0.051
- surviving fraction ([2]; 5 nM): 0.904 ± 0.04
- surviving fraction ([2]; 10 nM): 0.881 ± 0.037
- surviving fraction ([2]; 50 nM): 0.896 ± 0.022
- surviving fraction ([2]; 100 nM): 0.946 ± 0.023
- surviving fraction ([2]; 500 nM): 0.889 ± 0.071
- surviving fraction ([2]; 1000 nM): 0.911 ± 0.013

Test System: CASKI CERVIX
- surviving fraction ([1]; 0.5 nM): 0.713 ± 0.037
- surviving fraction ([1]; 1 nM): 0.472 ± 0.0095
- surviving fraction ([1]; 5 nM): 0.237 ± 0.0071
- surviving fraction ([1]; 10 nM): 0.193 ± 0.0081
- surviving fraction ([1]; 50 nM): 0.13 ± 0.013
- surviving fraction ([1]; 100 nM): 0.0993 ± 0.012
- surviving fraction ([1]; 500 nM): 0.0227 ± 0.0031
- surviving fraction ([1]; 1000 nM): 0.0183 ± 0.00058
- surviving fraction ([2]; 0.5 nM): 0.795 ± 0.091
- surviving fraction ([2]; 1 nM): 0.809 ± 0.029
- surviving fraction ([2]; 5 nM): 0.847 ± 0.045
- surviving fraction ([2]; 10 nM): 0.848 ± 0.033
- surviving fraction ([2]; 50 nM): 0.97 ± 0.02
- surviving fraction ([2]; 100 nM): 1.02 ± 0.033
- surviving fraction ([2]; 500 nM): 0.998 ± 0.045
- surviving fraction ([2]; 1000 nM): 1.02 ± 0.058

Test System: CHLA90 AUTONOMIC GANGLIA
- surviving fraction ([1]; 0.5 nM): 0.916 ± 0.055
- surviving fraction ([1]; 1 nM): 0.826 ± 0.037
- surviving fraction ([1]; 5 nM): 0.58 ± 0.045
- surviving fraction ([1]; 10 nM): 0.477 ± 0.018
- surviving fraction ([1]; 50 nM): 0.38 ± 0.036
- surviving fraction ([1]; 100 nM): 0.331 ± 0.0082
- surviving fraction ([1]; 500 nM): 0.233 ± 0.018
- surviving fraction ([1]; 1000 nM): 0.2 ± 0.011
- surviving fraction ([2]; 0.5 nM): 0.333 ± 0.039
- surviving fraction ([2]; 1 nM): 0.922 ± 0.041
- surviving fraction ([2]; 5 nM): 0.753 ± 0.041
- surviving fraction ([2]; 10 nM): 0.929 ± 0.044
- surviving fraction ([2]; 50 nM): 0.371 ± 0.013
- surviving fraction ([2]; 100 nM): 0.94 ± 0.018
- surviving fraction ([2]; 500 nM): 0.98 ± 0.049
- surviving fraction ([2]; 1000 nM): 1.07 ± 0.061

Test System: CME SYNOVIAL
- surviving fraction ([1]; 0.5 nM): 0.982 ± 0.12
- surviving fraction ([1]; 1 nM): 1.32 ± 0.047
- surviving fraction ([1]; 5 nM): 0.564 ± 0.077
- surviving fraction ([1]; 10 nM): 1.42 ± 0.17
- surviving fraction ([1]; 50 nM): 0.287 ± 0.018
- surviving fraction ([1]; 100 nM): 1.34 ± 0.057
- surviving fraction ([1]; 500 nM): 0.325 ± 0.025
- surviving fraction ([1]; 1000 nM): 1.31 ± 0.06
- surviving fraction ([2]; 0.5 nM): 0.101 ± 0.0087
- surviving fraction ([2]; 1 nM): 0.904 ± 0.082
- surviving fraction ([2]; 5 nM): 0.732 ± 0.072
- surviving fraction ([2]; 10 nM): 0.945 ± 0.23
- surviving fraction ([2]; 50 nM): 0.217 ± 0.021
- surviving fraction ([2]; 100 nM): 1.24 ± 0.14
- surviving fraction ([2]; 500 nM): 1.02 ± 0.14
- surviving fraction ([2]; 1000 nM): 1.12 ± 0.044

Test System: COLO320DM LARGE INTESTINE
- surviving fraction ([1]; 0.5 nM): 1.1 ± 0.089
- surviving fraction ([1]; 1 nM): 1.04 ± 0.041
- surviving fraction ([1]; 5 nM): 1.11 ± 0.035
- surviving fraction ([1]; 10 nM): 1.1 ± 0.072
- surviving fraction ([1]; 50 nM): 0.793 ± 0.055
- surviving fraction ([1]; 100 nM): 0.745 ± 0.019
- surviving fraction ([1]; 500 nM): 0.333 ± 0.011
- surviving fraction ([1]; 1000 nM): 0.388 ± 0.015
- surviving fraction ([2]; 0.5 nM): 0.376 ± 0.022
- surviving fraction ([2]; 1 nM): 0.996 ± 0.12
- surviving fraction ([2]; 5 nM): 0.921 ± 0.08
- surviving fraction ([2]; 10 nM): 1.07 ± 0.11
- surviving fraction ([2]; 50 nM): 0.462 ± 0.075
- surviving fraction ([2]; 100 nM): 1.07 ± 0.086
- surviving fraction ([2]; 500 nM): 1.03 ± 0.088
- surviving fraction ([2]; 1000 nM): 0.979 ± 0.079

Test System: DU4475 BREAST
- surviving fraction ([1]; 0.5 nM): 0.654 ± 0.12
- surviving fraction ([1]; 1 nM): 0.452 ± 0.065
- surviving fraction ([1]; 5 nM): 0.138 ± 0.048
- surviving fraction ([1]; 10 nM): 0.0743 ± 0.013
- surviving fraction ([1]; 50 nM): 0.038 ± 0.0095
- surviving fraction ([1]; 100 nM): 0.029 ± 0.0056
- surviving fraction ([1]; 500 nM): 0.0257 ± 0.0045
- surviving fraction ([1]; 1000 nM): 0.0277 ± 0.006
- surviving fraction ([2]; 0.5 nM): 0.783 ± 0.23
- surviving fraction ([2]; 1 nM): 0.699 ± 0.14
- surviving fraction ([2]; 5 nM): 0.791 ± 0.16
- surviving fraction ([2]; 10 nM): 0.741 ± 0.1
- surviving fraction ([2]; 50 nM): 0.597 ± 0.19
- surviving fraction ([2]; 100 nM): 0.603 ± 0.17
- surviving fraction ([2]; 500 nM): 0.0833 ± 0.03
- surviving fraction ([2]; 1000 nM): 0.0277 ± 0.0075

Test System: H23 LUNG
- surviving fraction ([1]; 0.5 nM): 0.989 ± 0.029
- surviving fraction ([1]; 1 nM): 0.929 ± 0.051
- surviving fraction ([1]; 5 nM): 0.578 ± 0.032
- surviving fraction ([1]; 10 nM): 0.35 ± 0.025
- surviving fraction ([1]; 50 nM): 0.26 ± 0.0067
- surviving fraction ([1]; 100 nM): 0.23 ± 0.013
- surviving fraction ([1]; 500 nM): 0.216 ± 0.0089
- surviving fraction ([1]; 1000 nM): 0.206 ± 0.023
- surviving fraction ([2]; 0.5 nM): 0.873 ± 0.037
- surviving fraction ([2]; 1 nM): 0.943 ± 0.057
- surviving fraction ([2]; 5 nM): 0.93 ± 0.055
- surviving fraction ([2]; 10 nM): 0.968 ± 0.068
- surviving fraction ([2]; 50 nM): 0.971 ± 0.028
- surviving fraction ([2]; 100 nM): 1.06 ± 0.018
- surviving fraction ([2]; 500 nM): 1.06 ± 0.044
- surviving fraction ([2]; 1000 nM): 1.17 ± 0.014

Reference: the supplement of paper PMC6045584
